Source: ChEMBL document CHEMBL4665709, “Rational Avoidance of Protease Cleavage Sites and Symmetrical End-Tagging Significantly Enhances the Stability and Therapeutic Potential of Antimicrobial Peptides” (J Med Chem, 2020)
≈ marks a conversion by molar mass, not a printed value. Calls of active or inactive are those of the source. The calls are words filed in the database; no cut-off is given here. Where a SMILES comes first, the peptide text is derived from it.

How the values were obtained:
Cell membrane [1] = experiment: Induction of morpholoical changes in membrane of Escherichia coli ATCC 25922 assessed as corrugation in bacterial membrane at 1 times MIC after 1 hr by scanning electron microscopy
Trypsin [2] = molecular target: T1, Trypsin (Homo sapiens, UniProt P07477+P07478+P35030); experiment: Stability of compound assessed as trypsin (unknown origin)-mediated drug degradation after 8 hrs by RP-HPLC analysis; format: ADME, protein assay
Escherichia coli [3] = experiment: Antibacterial activity against Escherichia coli ATCC 25922 after 18 to 24 hrs in presence of 8 uM Zn2+ by CLSI-based broth microdilution method; format: functional; conditions: time hrs 18-24
Staphylococcus aureus [4] = experiment: Antibacterial activity against Staphylococcus aureus ATCC 29213 after 18 to 24 hrs in presence of 150 mM Na+ by CLSI-based broth microdilution method; format: functional; conditions: time hrs 18-24
Staphylococcus aureus [5] = experiment: Antibacterial activity against Staphylococcus aureus ATCC 29213 after 18 to 24 hrs in presence of 8 uM Zn2+ by CLSI-based broth microdilution method; format: functional; conditions: time hrs 18-24
Escherichia coli [6] = experiment: Antibacterial activity against Escherichia coli ATCC 25922 infected in C57BL/6 mouse assessed as reduction in bacterial load in kidney at 10 mg/kg, ip measured after 11 hrs (reference value: 7.59 log CFU/g); format: functional
Staphylococcus aureus [7] = experiment: Antibacterial activity against Staphylococcus aureus ATCC 29213 after 18 to 24 hrs in presence of 25% human serum by CLSI-based broth microdilution method; format: functional; conditions: time hrs 18-24
Staphylococcus aureus [8] = experiment: Antibacterial activity against Staphylococcus aureus ATCC 29213 after 18 to 24 hrs by CLSI-based broth microdilution method; format: functional; conditions: time hrs 18-24
Cell membrane [9] = experiment: Induction of morpholoical changes in membrane of Escherichia coli ATCC 25922 assessed as breakage in bacterial membrane at 1 times MIC after 1 hr by scanning electron microscopy
[10] = Hemolytic activity in human RBC assessed as hemolysis at 1 to 128 uM relative to control; format: ADME, cell-based, Erythrocyte; conditions: human red blood cells (RBC), dose 1-128 µM, read-out: Activity
[11] = Therapeutic index, ratio of MHC for human RBC to geometric mean of peptide MIC for Staphylococcus aureus ATCC 29213; format: toxicity; conditions: human red blood cells (RBC), read-out: TI
Escherichia coli [12] = experiment: Antibacterial activity against Escherichia coli ATCC 25922 infected in C57BL/6 mouse assessed as reduction in bleeding in spleen at 10 mg/kg, ip measured after 11 hrs by hematoxylin and eosin staining based assay; format: functional, organism-based
Trypsin [13] = molecular target: T1, Trypsin; experiment: Stability of compound assessed as trypsin (unknown origin)-mediated drug degradation after 8 hrs by SDS-PAGE analysis; format: ADME, protein assay
Escherichia coli [14] = experiment: Antibacterial activity against Escherichia coli ATCC 25922 after 18 to 24 hrs in presence of 25% human serum by CLSI-based broth microdilution method; format: functional; conditions: time hrs 18-24
Staphylococcus aureus [15] = experiment: Antibacterial activity against Staphylococcus aureus ATCC 29213 after 18 to 24 hrs in presence of 4.5 mM K+ by CLSI-based broth microdilution method; format: functional; conditions: time hrs 18-24
Staphylococcus aureus [16] = experiment: Antibacterial activity against Staphylococcus aureus 11011 after 18 to 24 hrs by CLSI-based broth microdilution method; format: functional; conditions: time hrs 18-24
Cell membrane [17] = experiment: Disruption of membrane integrity in Escherichia coli ATCC 25922 assessed as induction of membrane rupture at 0.5 to 2 times MIC after 1 hr by SYTO-9/PI-staining based fluorescence microscopy
Staphylococcus aureus [18] = experiment: Displacement of BODIPY-TR-cadaverine from Staphylococcus aureus LTA after 4 hrs by fluorescence assay
Staphylococcus aureus [19] = experiment: Antibacterial activity against Staphylococcus aureus ATCC 29213 after 18 to 24 hrs in presence of 50% human serum by CLSI-based broth microdilution method; format: functional; conditions: time hrs 18-24
Staphylococcus aureus [20] = experiment: Antibacterial activity against Staphylococcus aureus 29213 with 0.0625-2 mg/mL trypsin for 1 hr followed by test compound addition measured after 4 to 8 hrs by CLSI-based broth microdilution method; format: functional, organism-based; conditions: time hrs 4-8
Salmonella typhimurium [21] = experiment: Antibacterial activity against Salmonella typhimurium 14028 after 18 to 24 hrs by CLSI-based broth microdilution method; format: functional, Salmonella enterica subsp. enterica serovar Typhimurium; conditions: Salmonella enterica, time hrs 18-24
Cell membrane [22] = experiment: Induction of structural changes in membrane of Escherichia coli ATCC 25922 assessed as cytoplasmic leakage at 1 times MIC after 1 hr by transmission electron microscopy
Salmonella typhimurium [23] = experiment: Antibacterial activity against Salmonella typhimurium 7731 after 18 to 24 hrs by CLSI-based broth microdilution method; format: functional, Salmonella enterica subsp. enterica serovar Typhimurium; conditions: Salmonella enterica, time hrs 18-24
Enterococcus faecalis = experiment: Antibacterial activity against Enterococcus faecalis ATCC 29212 after 18 to 24 hrs by CLSI-based broth microdilution method; format: functional; conditions: time hrs 18-24
[24] = Stability of compound assessed as proteinase K (unknown origin)-mediated drug degradation after 8 hrs by RP-HPLC analysis; format: ADME; conditions: human
[25] = Toxicity in C57BL/6 mouse assessed as change in body weigh at 20 mg/kg, ip measured for 5 days; format: organism-based; conditions: in vivo, 120 h, time 5 day
[26] = Toxicity in C57BL/6 mouse assessed as effect on creatinine level at 10 mg/kg, ip measured after 5 days; format: organism-based; conditions: in vivo, 120 h, time 5 day
[27] = Therapeutic index, ratio of MHC for human RBC to geometric mean of peptide MIC for Staphylococcus epidermidis ATCC 12228; format: toxicity; conditions: human red blood cells (RBC), read-out: TI
Escherichia coli [28] = experiment: Antibacterial activity against Escherichia coli ATCC 25922 infected in C57BL/6 mouse assessed as reduction in lesion in liver at 10 mg/kg, ip measured after 11 hrs by hematoxylin and eosin staining based assay; format: functional, organism-based
[29] = Therapeutic index, ratio of MHC for human RBC to geometric mean of peptide MIC for Staphylococcus aureus 11011; format: toxicity; conditions: human red blood cells (RBC), read-out: TI
Cell membrane [30] = experiment: Induction of morpholoical changes in membrane of Staphylococcus aureus ATCC 29213 assessed as corrugation in bacterial membrane at 1 times MIC after 1 hr by scanning electron microscopy; format: subcellular
Salmonella enterica = experiment: Antibacterial activity against Salmonella choleraesuis 503 after 18 to 24 hrs by CLSI-based broth microdilution method; format: functional; conditions: time hrs 18-24
[31] = Therapeutic index, ratio of MHC for human RBC to geometric mean of peptide MIC for Escherichia coli ATCC 25922; format: toxicity; conditions: human red blood cells (RBC), read-out: TI
Staphylococcus aureus [32] = experiment: Antibacterial activity against Staphylococcus aureus ATCC 29213 after 18 to 24 hrs in presence of 1 mM Mg2+ by CLSI-based broth microdilution method; format: functional; conditions: time hrs 18-24
Escherichia coli [33] = experiment: Antibacterial activity against Escherichia coli ATCC 25922 after 18 to 24 hrs in presence of 6 uM Fe3+ by CLSI-based broth microdilution method; format: functional; conditions: time hrs 18-24
Cell membrane [34] = experiment: Induction of structural changes in membrane of Staphylococcus aureus ATCC 29213 assessed as sparsity at 1 times MIC after 1 hr by transmission electron microscopy; format: subcellular
Cell membrane [35] = experiment: Disruption of membrane integrity in Staphylococcus aureus ATCC 29213 assessed as induction of membrane rupture at 2 times MIC after 1 hr by PI-staining based flow cytometry analysis
Cell membrane [36] = experiment: Induction of outer membrane permeabilization in Escherichia coli ATCC 25922 after 30 mins by NPN-dye based assay
[37] = Toxicity in C57BL/6 mouse assessed as effect on alanine aminotransferase level at 20 mg/kg, ip measured after 5 days; format: organism-based; conditions: in vivo, 120 h, time 5 day

SMILES: CC[C@H](C)[C@H](N)C(=O)N[C@H](C(=O)N[C@H](C(=O)N[C@@H](CS)C(=O)N[C@@H](CCCNC(=N)N)C(=O)N[C@@H](CCCCN)C(=O)N1CCC[C@H]1C(=O)N[C@H](C(=O)N[C@H](C(=O)N[C@@H](CS)C(=O)N[C@@H](CCCNC(=N)N)C(=O)N[C@@H](CCCCN)C(=O)N1CCC[C@H]1C(=O)N[C@H](C(=O)N[C@H](C(=O)N[C@@H](CS)C(=O)N[C@@H](CCCNC(=N)N)C(=O)N[C@@H](CCCCN)C(=O)N1CCC[C@H]1C(=O)N[C@H](C(=O)N[C@H](C(=O)N[C@@H](CS)C(=O)N[C@@H](CCCNC(=N)N)C(=O)N[C@@H](CCCCN)C(=O)N1CCC[C@H]1C(=O)N[C@H](C(=O)N[C@H](C(=O)N[C@H](C(N)=O)[C@@H](C)CC)[C@@H](C)CC)[C@@H](C)CC)[C@@H](C)CC)[C@@H](C)CC)[C@@H](C)CC)[C@@H](C)CC)[C@@H](C)CC)[C@@H](C)CC)[C@@H](C)CC)[C@@H](C)CC (H-IIICRKPIICRKPIICRKPIICRKPIII-NH2)
- Activity (Cell membrane [1]): Active
- Stabilty (Trypsin [2]): Stable
- MIC (Escherichia coli [3]): 2 µM
- MIC (Staphylococcus aureus [4]): 16 µM
- MIC (Staphylococcus aureus [5]): 8 µM
- Activity (Escherichia coli [6]): 5.38 log10CFU/g
- MIC (Staphylococcus aureus [7]): 8 µM
- MIC (Staphylococcus aureus [8]): 8 µM (≈ 26.5 µg/mL)
- Activity (Cell membrane [9]): Active
- hemolysis at up to 128 µM [10]: < 5%
- selectivity ratio [11]: 28.5
- Activity (Escherichia coli [12]): Active
- Stabilty (Trypsin [13]): Stable
- MIC (Escherichia coli [14]): 4 µM
- MIC (Staphylococcus aureus [15]): 8 µM
- MIC (Staphylococcus aureus [16]): 4 µM (≈ 13.3 µg/mL)
- Activity (Cell membrane [17]): Active
- Activity (Staphylococcus aureus [18]): Dose-dependent effect
- MIC (Staphylococcus aureus [19]): 16 µM
- Activity (Staphylococcus aureus [20]): Active
- MIC (Salmonella typhimurium [21]): 2 µM (≈ 6.63 µg/mL)
- Activity (Cell membrane [22]): Active
- MIC (Salmonella typhimurium [23]): 2 µM (≈ 6.63 µg/mL)
- MIC (Enterococcus faecalis): 8 µM (≈ 26.5 µg/mL)
- Stabilty [24]: Stable
- Activity [25]: Non-Toxic
- Activity [26]: Non-Toxic
- selectivity ratio [27]: 28.5
- Activity (Escherichia coli [28]): Active
- selectivity ratio [29]: 28.5
- Activity (Cell membrane [30]): Active
- MIC (Salmonella enterica): 2 µM (≈ 6.63 µg/mL)
- selectivity ratio [31]: 57
- MIC (Staphylococcus aureus [32]): 16 µM
- MIC (Escherichia coli [33]): 2 µM
- Activity (Cell membrane [34]): Active
- Activity (Cell membrane [35]): > 90%
- Activity (Cell membrane [36]): Dose-dependent effect
- Activity [37]: Non-Toxic
